Reference: ChEMBL document CHEMBL5120959, “Pyrrospirones K-Q, Decahydrofluorene-Class Alkaloids from the Marine-Derived Fungus Penicillium sp. SCSIO 41512” (J Nat Prod, 2022)
≈ marks a conversion by molar mass, not a printed value.

System: Mycobacterium tuberculosis
Experiment: Antitubercular activity against Mycobacterium tuberculosis H37Ra
Format: functional

C=C[C@H]1C=C[C@@H]2[C@@H]3[C@@H](Oc4ccc(cc4)C[C@@]4(O)C[C@H](C(=O)N4)C(=O)[C@@H]13)[C@@H]1CC[C@@H](C)C[C@@]21C
MIC: 0.78 µg/mL (≈ 1.69 µM)
